Data taken from ChEMBL document CHEMBL3525960, “Role of catechol-O-methyltransferase in the disposition of luteolin in rats” (Drug Metab Dispos, 2011).

Legend:
[1] = Mean residence time (0 to infinity) in Sprague-Dawley rat treated with luteolin at 6.5 mg/kg, iv; format: ADME, organism-based; parameters: dose 6.5 mg/kg, route intravenous; details: in vivo
[2] = Cmax in Sprague-Dawley rat treated with luteolin at 6.5 mg/kg, iv; format: ADME, organism-based; parameters: dose 6.5 mg/kg, route intravenous; details: in vivo
Lung [3] = test: Drug metabolism in Sprague-Dawley rat lung homogenate treated with luteolin at 20 uM after 20 to 60 mins; format: ADME, tissue-based; details: tissue homogenate
[4] = Drug metabolism in Sprague-Dawley rat erythrocytes homogenate treated with luteolin at 20 uM after 20 to 60 mins in presence of COMT inhibitor entacapone; format: ADME, cell-based; details: erythrocyte
Lung [5] = test: Drug metabolism in Sprague-Dawley rat lung homogenate treated with luteolin at 20 uM after 20 to 60 mins in presence of COMT inhibitor entacapone; format: ADME, tissue-based; details: tissue homogenate
[6] = AUC (0 to infinity) in Sprague-Dawley rat treated with luteolin at 6.5 mg/kg, iv; format: ADME, organism-based; parameters: time infinity, dose 6.5 mg/kg, route intravenous; details: plasma
Liver [7] = test: Drug metabolism in Sprague-Dawley rat liver homogenate treated with luteolin at 20 uM after 20 to 60 mins; format: ADME, tissue-based; details: tissue homogenate
[8] = Mean residence time (0 to t) in Sprague-Dawley rat treated with luteolin at 6.5 mg/kg, iv; format: ADME, organism-based; parameters: dose 6.5 mg/kg, route intravenous; details: in vivo
[9] = Drug recovery in Sprague-Dawley rat urine assessed as retention time treated with luteolin at 6.5 mg/kg, iv by reverse-phase HPLC method; format: ADME, organism-based; parameters: dose 6.5 mg/kg, route intravenous; details: in vivo
Small intestine [10] = test: Drug metabolism in Sprague-Dawley rat small intestine homogenate treated with luteolin at 20 uM after 20 to 60 mins; format: ADME, tissue-based; details: tissue homogenate
Liver [11] = test: Drug metabolism in Sprague-Dawley rat liver homogenate treated with luteolin at 20 uM after 20 to 60 mins in presence of COMT inhibitor entacapone; format: ADME, tissue-based; details: tissue homogenate
Small intestine [12] = test: Drug metabolism in Sprague-Dawley rat small intestine homogenate treated with luteolin at 20 uM after 20 to 60 mins in presence of COMT inhibitor entacapone; format: ADME, tissue-based; details: tissue homogenate
[13] = Drug excretion in Sprague-Dawley rat urine treated with luteolin at 6.5 mg/kg, iv after 24 hrs co-treated with COMT inhibitor entacapone; format: ADME, organism-based; parameters: dose 6.5 mg/kg, route intravenous; details: read-out: Drug excretion
Rattus norvegicus = test: Clearance in Sprague-Dawley rat treated with luteolin at 6.5 mg/kg, iv; format: ADME, organism-based; parameters: dose 6.5 mg/kg, route intravenous; details: in vivo
Kidney [14] = test: Drug metabolism in Sprague-Dawley rat kidney homogenate treated with luteolin at 20 uM after 20 to 60 mins in presence of COMT inhibitor entacapone; format: ADME, tissue-based; details: tissue homogenate
[15] = Drug metabolism in Sprague-Dawley rat erythrocytes homogenate treated with luteolin at 20 uM after 20 to 60 mins; format: ADME, cell-based; details: erythrocyte
Liver microsome = test: Stability in Sprague-Dawley rat liver microsomes at 10 uM after 10 to 30 mins by HPLC analysis; format: ADME
[16] = Drug excretion in Sprague-Dawley rat urine treated with luteolin at 6.5 mg/kg, iv after 24 hrs; format: ADME, organism-based; parameters: dose 6.5 mg/kg, route intravenous; details: read-out: Drug excretion
[17] = Half life in Sprague-Dawley rat treated with luteolin at 6.5 mg/kg, iv; format: ADME, organism-based; parameters: dose 6.5 mg/kg, route intravenous; details: in vivo
[18] = AUC (0 to t) in Sprague-Dawley rat treated with luteolin at 6.5 mg/kg, iv; format: ADME, organism-based; parameters: dose 6.5 mg/kg, route intravenous; details: plasma
[19] = Volume of distribution in Sprague-Dawley rat treated with luteolin at 6.5 mg/kg, iv; format: ADME, organism-based; parameters: dose 6.5 mg/kg, route intravenous; details: in vivo
Kidney [20] = test: Drug metabolism in Sprague-Dawley rat kidney homogenate treated with luteolin at 20 uM after 20 to 60 mins; format: ADME, tissue-based; details: tissue homogenate

MRT inf [1]: 1.76 h
Cmax [2]: 2060 ng/mL
Drug metabolism (Lung [3]): metabolite_detected
Drug metabolism [4]: metabolite_not_detected
Drug metabolism (Lung [5]): metabolite_not_detected
AUC(0-inf) [6]: 2280 ng·h/mL
Drug metabolism (Liver [7]): metabolite_detected
MRT last [8]: 1.24 h
Retention_time [9]: 29.35 min
Drug metabolism (Small intestine [10]): metabolite_detected
Drug metabolism (Liver [11]): metabolite_not_detected
Drug metabolism (Small intestine [12]): metabolite_not_detected
dose excreted at 24 h [13]: 0.451%
clearance (Rattus norvegicus): 2.94 L/h/kg
Drug metabolism (Kidney [14]): metabolite_not_detected
Drug metabolism [15]: metabolite_detected
Stability (Liver microsome): Unstable
dose excreted at 24 h [16]: 1.92%
half-life [17]: 94.2 min
AUC(0-t) [18]: 2090 ng·h/mL
Vd [19]: 6.34 L/kg
Drug metabolism (Kidney [20]): metabolite_detected
SMILES: COc1cc(-c2cc(=O)c3c(O)cc(O)cc3o2)ccc1O [CHRYSOERIOL]
